Source: patent US20140228423A1, “BIOMARKERS AND THERAPY FOR CANCER” (BAYLOR COLLEGE OF MEDICINE, priority 2011, published 2014)

What was measured:
[1] = system: OVCAR8 cells; experiment: Cell viability of OVCAR8 cells after 48 hours with drug (dose response); type: cell-based; settings: Homo sapiens, OVCAR-8; 48-hr treatment of OVCAR8 cells
Procedure: (§1) FIG. 10. Drug and miRNA mimic effects on ovarian cancer cell viability (A-C) and proliferation (D). OVCAR8 cancer cells were incubated for 48 hours in the presence of YM155 (A) or everolimus (B) and assayed for cell viability. C. Three independent PTEN/DICER DKO mouse serous carcinoma cell lines were transfected with miRNA control (miR-Ctrl) or miR-34c mimics and assayed for cell viability 48 hours later. D. OVCAR8 cells were infected with lentivirus expressing miR-Ctrl or miR-34c and assayed for cell number. *, P<0.05; **, P<0.005; ***, P<0.0005
FIG. 17. Dose response curve of YM155 after 48-hr treatment of OVCAR8 cells.
Well-known as an apoptosis inhibitor, survivin has been identified to contribute to nearly every aspect of cancer from onset to outcome (Altieri, 2008; Martinelli et al., 2006). Nearly all serous, endometrioid, and poorly-differentiated ovarian cancers express surviving (Cohen et al., 2003), the levels of survivin correlate with poor prognostic parameters (Cohen et al., 2003), high levels of survivin are associated with taxol/platinum resistance (Zaffaroni et al., 2002), and women with PTEN-negative/survivin-positive ovarian cancers have the worst prognosis (Sui et al., 2006). […] Based on these findings, the inventors treated mouse serous cancer cell lines and the human serous cancer line OVCAR8 with YM155 or everolimus, an inhibitor of mTOR (FIG. 5A, B). […]

[2] = system: OVCAR8 cells; experiment: Illumina gene expression analysis of YM155-treated versus DMSO-treated OVCAR8 cells; type: cell-based, human; settings: OVCAR8, 6 hours
Procedure: (§2) To characterize the early targets of YM155 in cancer cells, the ovarian cancer cell line OVCAR8 was treated acutely for 6 hours with YM155 (10 nM). Using Illumina gene expression analysis and QPCR followup, YM155-treated cells were compared with DMSO vehicle treated cells. […] DDIT3 (a.k.a., CHOP) is a proapoptotic protein whose induction is a hallmark of ER stress induced apoptosis (Wang et al., 2010). […] HSP72 has strong cytoprotective effect by functioning as a molecular chaperone in cytosolic protein folding, transport, and degradation (Morimoto et al., 1997; Tavaria et al., 1996), and as an inhibitor of cellular apoptosis (Gamido et al., 2003; Samali and Orrenius, 1998). In addition, HSP72 interacts with ER stress sensor protein IRE1a thereby enhancing IREla-XBP1 signaling at the ER and promoting adaptation to ER stress and cell survival (Gupta et al., 2010). HSP72 is normally expressed at low levels, and is induced upon exposure to environmental stress to exert its cytoprotective effect. However, in cancer, HSP72 is constitutively expressed in many cancer cell lines and biopsies, and its expression correlates with poor prognosis (Gabai et al., 2009). HSP72 provides a selective advantage to cancer cells by suppressing default senescence via p53-dependent and p53-independent pathways (Yaglom et al., 2007). Thus, YM155 acutely suppresses HSPA1A and HSPA1B, indicating a novel mechanism which may contribute directly to the anti-cancer effect of YM155.

[3] = system: OVCAR8 cells; experiment: QPCR follow-up of YM155-treated versus DMSO-treated OVCAR8 cells; type: cell-based, human; settings: OVCAR8, 6 hours
Excerpt: as §2, with “Using” for “To characterize the early targets of YM155 in cancer cells, the ovarian cancer cell line OVCAR8 was treated acutely for 6 hours with YM155 (10 nM). Using”

[4] = system: ovarian cancer cell lines and a pancreatic cancer cell line; experiment: Cell Titer Glo viability with YM155, parthenolide or both for 48 hours; settings: single agents at levels giving about half inhibition, and their combination
[5] = system: OVCAR8 cells; experiment: High-throughput screen of Prestwick Chemical Library with or without YM155; settings: Homo sapiens, OVCAR-8, read-out: Cell viability
Procedure: High-throughput screen for drugs that synergize with YM155. […] Digitonin (0.8 mg/ml) was used as a positive control for ˜100% cell death. […] The relative synergy for each drug was then calculated by subtracting measured cell survival of combinatorial treatment from the calculated c value.
To identify additional small molecules that synergize with YM155, a small library screen was performed.

[6] = system: Dicer-Pten DKO mouse cancer cell lines; experiment: Cell viability (CellTiter-Glo) of Dicer-Pten DKO mouse cancer cell lines after miRNA mimic transfection or everolimus; type: cell-based; settings: for sensitivity of cells (anti-proliferative, secondary to G1 arrest, and pro-apoptotic effects): Dicer/Pten double null line from primary mouse serous cancer, everolimus 0.8 uM, 48 h, alone and in combination; for cell viability and proliferation after miR-34c mimic delivery: mouse and human serous cancer cell lines (three PTEN/DICER DKO lines, OVCAR8)
Procedure: FIG. 4. Activation of the PI3K pathway in Dicer/Pten DKO mice and effects of mir34c and everolimus on a Dicer/Pten DKO cell line. A, Western blot analysis of DKO fallopian tube tumors showing activation of AKT signaling compared with control fallopian tubes. B, A Dicer/Pten DKO cell line was transfected with miR-34c mimic or a control (miR-Ctrl), treated with everolimus (0.8 uM) or without (DMSO), and examined 48 h later for the effects on cell viability.
To functionally evaluate the roles of miR34c and the mTOR inhibitor everolimus in serous cancers, the inventors first generated 32 cell lines from primary cancers (5 lines), metastatic lesions (11 lines), and ascites fluid (16 lines) of independent Dicer/Pten DKO mice. The effects were analyzed of everolimus and miR-34c mimic alone and in combination on a confirmed Dicer/Pten double null cell line derived from a primary mouse serous cancer. […] Based on the studies, there are the following considerations: 1) MiR-34c and additional miRNAs function to suppress the development of high grade serous carcinomas and the […], and/or 2) Simultaneous pharmacological targeting of mTOR and pathways downstream of miR-34c and other miRNAs leads to therapies to eradicate high-grade serous carcinomas.
Dicer-Pten DKO mouse cancer cell line DKO-1 were transfected with various miRNA mimics including miR-31, miR-100, let-7b, miR-34c or a miRNA control (miR-Ctrl). Cell viability was measured by ATP quantitation-based CellTiter-Glo assay 48 hours after transfection.
(§3) FIG. 13A is a cell viability assay. Dicer-Pten DKO mouse cancer cell lines were transfected with miR-34c followed by cell viability assay in 48 hours using CellTiter-Glo assay. FIG. 13B is cell cycle analysis. Forty-eight hours after miR-34c transfection, Dicer-Pten DKO mouse cancer cell lines were fixed in cold 70% ethanol and stained with PI. Cell cycle profiles were determined by flow cytometry and analyzed by flowjo.

[7] = system: mouse serous cancer cell lines and the human serous cancer line OVCAR8; experiment: Treatment of serous cancer cell lines with YM155 or everolimus; type: cell-based
Excerpt: Well-known as an apoptosis inhibitor, survivin has been identified to contribute to nearly every aspect of cancer from onset to outcome (Altieri, 2008; Martinelli et al., 2006). Nearly all serous, endometrioid, and poorly-differentiated ovarian cancers express surviving (Cohen et al., 2003), the levels of survivin correlate with poor prognostic parameters (Cohen et al., 2003), high levels of survivin are associated with taxol/platinum resistance (Zaffaroni et al., 2002), and women with PTEN-negative/survivin-positive ovarian cancers have the worst prognosis (Sui et al., 2006). […] Based on these findings, the inventors treated mouse serous cancer cell lines and the human serous cancer line OVCAR8 with YM155 or everolimus, an inhibitor of mTOR (FIG. 5A, B). […] These findings indicate that YM155 and everolimus can be used to identify small molecules that synergize with the compounds to eradicate high-grade serous carcinomas in women.

[8] = system: PTEN/DICER DKO primary serous cancer cell lines; experiment: Microarray analysis (QPCR follow-up) of gene expression after miR-34c mimic transfection; type: cell-based, mouse
Procedure: To characterize the roles of miR-34c in regulating major cancer and cell cycle pathways, mimics were transfected into three independent PTEN/DICER DKO primary serous cancer cell lines and the human OVCAR8 serous cancer cell line and assayed for cell viability and cell proliferation (FIG. 5C, D) and microarray analysis was performed, with followup QPCR confirmation. […] The effects were examined of miR-34c on major pathway genes that contain miR-34c binding sites in their 3′UTR sequences as well as pathways in which these proteins lie. […] These findings are especially relevant to cancer treatment since mutations in TOP2A are associated with drug resistance, and TOP2A is the target for several chemotherapeutic agents.

[9] = system: OVCAR8; experiment: Lentiviral expression of miR-34c in OVCAR8: proliferation (CellTiter-Glo) and cell cycle (PI flow cytometry); type: cell-based, human
Procedure: as §1
In FIG. 16A, OVCAR8 infected with miR-34c or control lentivirus were seeded onto 96-well plates for proliferation assay measured by CellTiter-Glo assay. In FIG. 16B, five days after miR-34c or control lentivirus infection, cells were fixed in cold 70% ethanol and stained with PI. Cell cycle profiles were determined by flow cytometry and analyzed by flowjo.

[10] = system: Dicer-Pten DKO mouse cancer cell lines; experiment: Cell cycle analysis (PI, flow cytometry) after miR-34c transfection; type: cell-based; settings: 48 hours after miR-34c transfection
Procedure: as §3

[11] = system: Dicer-Pten DKO mouse cancer cell line; experiment: QPCR analysis of miR-34c downstream genes after miR-34c mimic transfection; type: cell-based
Excerpt: In FIG. 14, miR-34c inhibits cyclinE-CDK2 complex. Analysis of some of miR-34c downstream genes is shown. QPCR analysis showing relative quantity of CDK2 (A), CCNE2 (B) and CDKN1C(C) after miR-34c mimic transfection in Dicer-Pten DKO mouse cancer cell line.

[12] = transient transfection, Dicer-Pten DKO cell lines

COCCn1c2c([n+](Cc3cnccn3)c1C)C(=O)c1ccccc1C2=O [YM155, sepantronium bromide]
GI50 [1]: 4.6 nM | Fold Change YM155 (10 nM)/DMSO (Array): ATF3 [2]: 2.2 | Fold Change YM155 (10 nM)/DMSO (Array): BIRC5 (Survivin) [2]: −1.3 | Fold Change YM155 (10 nM)/DMSO (Array): DDIT3 [2]: 3.8 | Fold Change YM155 (10 nM)/DMSO (Array): DDIT4 [2]: 5.6 | Fold Change YM155 (10 nM)/DMSO (Array): HERPUD1 [2]: 2.2 | Fold Change YM155 (10 nM)/DMSO (Array): HSPA1A [2]: −2.6 | Fold Change YM155 (10 nM)/DMSO (Array): HSPA1B [2]: −2.6 | Fold Change YM155 (10 nM)/DMSO (Array): TRIB3 [2]: 2.6 | Fold Change YM155 (30 nM)/DMSO (QPCR): ATF3 [3]: 11.1 | Fold Change YM155 (30 nM)/DMSO (QPCR): BIRC5 (Survivin) [3]: −1.1 | Fold Change YM155 (30 nM)/DMSO (QPCR): DDIT3 [3]: 3.6 | Fold Change YM155 (30 nM)/DMSO (QPCR): DDIT4 [3]: 10.6 | Fold Change YM155 (30 nM)/DMSO (QPCR): HERPUD1 [3]: 3.1 | Fold Change YM155 (30 nM)/DMSO (QPCR): HSPA1A [3]: −7.5 | Fold Change YM155 (30 nM)/DMSO (QPCR): HSPA1B [3]: −4.4 | Fold Change YM155 (30 nM)/DMSO (QPCR): TRIB3 [3]: 2.0 | inhibition of cancer cell viability [4]: ~50% | viability at 0.003 µM [5]: 64.3%

CO[C@H]1C[C@@H]2CC[C@@H](C)[C@@](O)(O2)C(=O)C(=O)N2CCCC[C@H]2C(=O)O[C@H]([C@H](C)C[C@@H]2CC[C@@H](OCCO)[C@H](OC)C2)CC(=O)[C@H](C)/C=C(\C)[C@@H](O)[C@@H](OC)C(=O)[C@H](C)C[C@H](C)/C=C/C=C/C=C/1C [everolimus, reference compound]
sensitivity of cells (anti-proliferative, secondary to G1 arrest, and pro-apoptotic effects) [6]: exquisitely sensitive | sensitivity of the tumors (cell viability) [7]: micromolar levels

miR-34c mimic: mimic of miR-34c, mature sequence AGGCAGUGUAGUUAGCUGAUUGC (SEQ ID NO:2); also delivered by lentivirus (listed as RNA, chemistry not given here)
sensitivity of cells (anti-proliferative, secondary to G1 arrest, and pro-apoptotic effects) [6]: exquisitely sensitive | suppression of mouse and human ovarian cancer cell viability among miRNAs tested ([6]; Dicer/Pten serous ovarian cancer model): the only miRNA to suppress | cell viability and proliferation after miR-34c mimic delivery [6]: dramatic effect | cell viability and proliferation after miR-34c mimic delivery ([6]; listed as miR-34c): reduced cell viability | apoptosis [6, 12]: induction of apoptosis | cell growth [6, 12]: growth inhibitory effect | suppression of TOP2A ([8]; by the miR-34c mimic): 11.7 fold | Fold Change miR-34c mimic: CCNE2 ([8]; gene CCNE2, predicted miR-34c binding site): −4.6 | Fold Change miR-34c mimic: CDC6 ([8]; gene CDC6, predicted miR-34c binding site): −5.5 | Fold Change miR-34c mimic: CDCA8 ([8]; gene CDCA8, predicted miR-34c binding site): −9.6 | Fold Change miR-34c mimic: CDK2 ([8]; gene CDK2): −3.4 | Fold Change miR-34c mimic: CDT1 ([8]; gene CDT1): −6.3 | Fold Change miR-34c mimic: INCENP ([8]; gene INCENP): −4.5 | Fold Change miR-34c mimic: MCM5 ([8]; gene MCM5, predicted miR-34c binding site): −18.7 | Fold Change miR-34c mimic: MDM2 ([8]; gene MDM2): 1.0 | Fold Change miR-34c mimic: MRVI1 ([8]; gene MRVI1): 10.2 | Fold Change miR-34c mimic: PBK ([8]; gene PBK): −5.7 | Fold Change miR-34c mimic: Survivin ([8]; gene Survivin): −4.8 | Fold Change miR-34c mimic: TOP2A ([8]; gene TOP2A): −11.7 | upregulation of MRVI1 ([8]; miR-34c mimic): 10.2 fold | downregulation of direct targets MCM5, CDC6, CCNE2 and CDCA8 ([8]; upon delivery of miR-34c): 4.6-18.7 fold | cell cycle profile ([9]; five days after lentivirus infection, OVCAR8): arresting cancer cells in G1 phase | cell proliferation ([9]; lentiviral expression of miR-34c in OVCAR8): inhibits cell proliferation | cell cycle profile [10]: cell cycle arrest in G1 phase | CDK2 relative quantity [11]: down regulating | CDKN1C relative quantity [11]: up regulating | cyclinE (CCNE2) relative quantity [11]: down regulating
